Experimental data as given in US8889875B2, “Pyridyl derivatives as CFTR modulators” (Vertex Pharmaceuticals Incorporated, priority 2008, dated 2014).

Target: T1, ΔF508-CFTR (Homo sapiens, UniProt P13569, DEL508-508)
T1 construct: expressed in transfected cells
Experiment: Membrane potential optical assay, identification of correction compounds (single-addition HTS format)
Assay type: cell-based
Settings: PercentActivity; ΔF508-CFTR in NIH3T3 mouse fibroblasts; 16-24 hrs with compound; 10 μM forskolin and 20 μM genistein; read-out: BinnedMaxEfficacy
Text: Membrane Potential Optical Methods for Assaying ΔF508-CFTR Modulation Properties of Compounds.
The assay utilizes fluorescent voltage sensing dyes to measure changes in membrane potential using a fluorescent plate reader (e.g., FLIPR III, Molecular Devices, Inc.) as a readout for increase in functional ΔF508-CFTR in NIH 3T3 cells. The driving force for the response is the creation of a chloride ion gradient in conjunction with channel activation by a single liquid addition step after the cells have previously been treated with compounds and subsequently loaded with a voltage sensing dye.
To identify small molecules that correct the trafficking defect associated with ΔF508-CFTR; a single-addition HTS assay format was developed. Assay Plates containing cells are incubated for ˜2-4 hours in tissue culture incubator at 37° C., 5% CO2, 90% humidity. Cells are then ready for compound exposure after adhering to the bottom of the assay plates.
The cells were incubated in serum-free medium for 16-24 hrs in tissue culture incubator at 37° C., 5% CO2, 90% humidity in the presence or absence (negative control) of test compound. The cells were subsequently rinsed 3× with Krebs Ringers solution and loaded with a voltage sensing redistribution dye. To activate ΔF508-CFTR, 10 μM forskolin and the CFTR potentiator, genistein (20 μM), were added along with Cl^−-free medium to each well. The addition of Cl^−-free medium promoted Cl^− efflux in response to ΔF508-CFTR activation and the resulting membrane depolarization was optically monitored using voltage sensor dyes.
Bath Solution #1: (in mM) NaCl 160, KCl 4.5, CaCl2 2, MgCl2 1, HEPES 10, pH 7.4 with NaOH.
Chloride-free bath solution: Chloride salts in Bath Solution #1 are substituted with gluconate salts.
NIH3T3 mouse fibroblasts stably expressing ΔF508-CFTR are used for optical measurements of membrane potential. The cells are maintained at 37° C. in 5% CO2 and 90% humidity in Dulbecco's modified Eagle's medium supplemented with 2 mM glutamine, 10% fetal bovine serum, 1×NEAA, β-ME, 1×pen/strep, and 25 mM HEPES in 175 cm^2 culture flasks. For all optical assays, the cells were seeded at ˜20,000/well in 384-well matrigel-coated plates and cultured for 2 hrs at 37° C. before culturing at 27° C. for 24 hrs. for the potentiator assay. For the correction assays, the cells are cultured at 27° C. or 37° C. with and without compounds for 16-24 hours.

T1 sequence (P13569 with tags, fused parts or gaps DEL508-508): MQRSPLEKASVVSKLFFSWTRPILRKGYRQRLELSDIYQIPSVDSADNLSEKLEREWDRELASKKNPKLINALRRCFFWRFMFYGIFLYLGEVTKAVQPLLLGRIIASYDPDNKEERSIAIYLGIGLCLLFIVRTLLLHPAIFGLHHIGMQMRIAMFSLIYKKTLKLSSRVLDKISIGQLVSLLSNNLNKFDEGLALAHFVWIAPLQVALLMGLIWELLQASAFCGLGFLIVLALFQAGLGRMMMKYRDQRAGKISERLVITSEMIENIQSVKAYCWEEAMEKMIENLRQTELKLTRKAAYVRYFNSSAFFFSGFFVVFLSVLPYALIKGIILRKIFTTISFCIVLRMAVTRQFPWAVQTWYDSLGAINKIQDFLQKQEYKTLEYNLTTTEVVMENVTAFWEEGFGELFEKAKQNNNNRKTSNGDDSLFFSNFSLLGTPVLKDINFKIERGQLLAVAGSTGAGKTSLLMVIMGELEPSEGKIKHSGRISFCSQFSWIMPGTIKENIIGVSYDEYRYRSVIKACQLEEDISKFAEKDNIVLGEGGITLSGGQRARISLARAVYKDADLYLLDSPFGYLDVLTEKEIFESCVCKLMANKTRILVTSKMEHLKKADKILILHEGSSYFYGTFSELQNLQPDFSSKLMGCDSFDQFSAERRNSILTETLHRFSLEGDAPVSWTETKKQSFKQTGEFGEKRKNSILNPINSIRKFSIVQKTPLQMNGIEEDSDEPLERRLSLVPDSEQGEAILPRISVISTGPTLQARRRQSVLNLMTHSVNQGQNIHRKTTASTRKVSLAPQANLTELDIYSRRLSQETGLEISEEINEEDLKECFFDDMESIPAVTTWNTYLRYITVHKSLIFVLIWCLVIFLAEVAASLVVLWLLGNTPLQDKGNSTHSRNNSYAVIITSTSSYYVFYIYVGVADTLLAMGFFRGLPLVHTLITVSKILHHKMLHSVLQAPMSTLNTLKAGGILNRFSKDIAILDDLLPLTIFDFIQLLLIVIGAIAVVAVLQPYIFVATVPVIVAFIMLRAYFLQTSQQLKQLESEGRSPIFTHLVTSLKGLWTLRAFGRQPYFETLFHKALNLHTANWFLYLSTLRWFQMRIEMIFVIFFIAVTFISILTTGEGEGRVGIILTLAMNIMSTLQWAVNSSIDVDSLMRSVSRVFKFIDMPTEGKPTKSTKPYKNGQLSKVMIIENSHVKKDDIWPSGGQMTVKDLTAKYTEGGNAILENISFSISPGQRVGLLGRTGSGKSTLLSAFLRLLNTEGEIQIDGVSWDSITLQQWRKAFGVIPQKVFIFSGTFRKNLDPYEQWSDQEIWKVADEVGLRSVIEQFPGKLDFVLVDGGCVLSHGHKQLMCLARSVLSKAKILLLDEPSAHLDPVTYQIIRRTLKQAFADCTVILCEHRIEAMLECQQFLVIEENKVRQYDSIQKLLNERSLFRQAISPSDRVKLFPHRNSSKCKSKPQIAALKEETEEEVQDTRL

| Compound | Emax [%] |
| --- | --- |
| COCC1CCCN1C(c1ccc(NC(=O)C2(c3ccc4c(c3)OCO4)CC2)nc1)c1ccccc1OC (stereo not shown) [Compound 36] | > 100 |
| COc1ccccc1C(=O)c1ccc(NC(=O)C2(c3ccc(SC)cc3)CC2)nc1 [Compound 37] | > 100 |
| COc1ccc(C2(C(=O)Nc3ccc(C)cn3)CC2)cc1 [Compound 38] | 25 to 100 |
| COc1ccccc1C(c1ccc(NC(=O)C2(c3ccc4c(c3)OCO4)CC2)nc1)N1CCN(CCO)CC1 (stereo not shown) [Compound 39] | 25 to 100 |
| Cc1ccc(NC(=O)C2(c3ccc4c(c3)OC(F)(F)O4)CC2)nc1 [Compound 40] | > 100 |
| O=C(Nc1ncccc1OCc1ccccc1)C1(c2ccccc2)CC1 [Compound 41] | 25 to 100 |
| Cc1ccc(NC(=O)C2(c3ccc4c(c3)OCO4)CC2)nc1 [Compound 42] | > 100 |
| CCc1ccc(C)nc1NC(=O)C1(c2ccc3c(c2)OCO3)CC1 [Compound 43] | 25 to 100 |
| COc1ccccc1C(O)c1ccc(NC(=O)C2(c3ccc4c(c3)OCO4)CC2)nc1 (stereo not shown) [Compound 44] | > 100 |
| COc1ccccc1C(c1ccc(NC(=O)C2(c3ccc4c(c3)OCO4)CC2)nc1)N1CCCC1C(N)=O (stereo not shown) [Compound 45] | > 100 |
| COc1ccccc1Cc1ccc(NC(=O)C2(c3ccc(Cl)cc3)CC2)nc1 [Compound 46] | > 100 |
| O=C(Nc1ccc(F)cn1)C1(c2ccc3c(c2)OCO3)CC1 [Compound 47] | > 100 |
| O=C(Nc1ncccc1OCc1ccccc1)C1(c2ccc3c(c2)OCO3)CC1 [Compound 48] | 25 to 100 |
| COc1ccccc1C(c1ccc(NC(=O)C2(c3ccc4c(c3)OCO4)CC2)nc1)N1CCOCC1 (stereo not shown) [Compound 49] | > 100 |
| Cc1cnc(NC(=O)C2(c3ccc4c(c3)OC(F)(F)O4)CC2)cc1-c1cccc(C(=O)O)c1 [Compound 50] | 25 to 100 |
| COC[C@@H]1CCCN1C(c1ccc(NC(=O)C2(c3ccc4c(c3)OCO4)CC2)nc1)c1ccccc1OC (stereo partly shown) [Compound 51] | > 100 |
| COc1ccccc1Nc1ccc(NC(=O)C2(c3ccc4c(c3)OCO4)CC2)nc1 [Compound 52] | > 100 |
| CNC(c1ccc(NC(=O)C2(c3ccc4c(c3)OCO4)CC2)nc1)c1ccccc1OC (stereo not shown) [Compound 53] | > 100 |
| COc1ccc(C2(C(=O)Nc3cccc(C)n3)CC2)cc1 [Compound 54] | 25 to 100 |
| COc1ccccc1C(c1ccc(NC(=O)C2(c3ccc4c(c3)OCO4)CC2)nc1)N1CC[C@@H](O)C1 (stereo partly shown) [Compound 55] | > 100 |
| CC(C)Cc1cccc(NC(=O)C2(c3ccc4c(c3)OCO4)CC2)n1 [Compound 56] | > 100 |
| COc1ccccc1C(OCCO)c1ccc(NC(=O)C2(c3ccc4c(c3)OCO4)CC2)nc1 (stereo not shown) [Compound 57] | > 100 |
| COc1ccccc1C(c1ccc(NC(=O)C2(c3ccc4c(c3)OCO4)CC2)nc1)N1CCC(O)CC1 (stereo not shown) [Compound 58] | > 100 |
| COc1ccccc1C(OCCN1CCCCC1)c1ccc(NC(=O)C2(c3ccc4c(c3)OCO4)CC2)nc1 (stereo not shown) [Compound 71] | 25 to 100 |

Results, then the compound that gave them:

| Emax [%] | Compound |
| --- | --- |
| > 100 | O=C(Nc1ccc(Cc2ccccc2Cl)cn1)C1(c2ccc3c(c2)OCO3)CC1 [Compound 59] |
| > 100 | COc1ccc(Cc2ccc(NC(=O)C3(c4ccc5c(c4)OCO5)CC3)nc2)cc1 [Compound 60] |
| 25 to 100 | CCc1cccc(NC(=O)C2(c3ccccc3)CC2)n1 [Compound 61] |
| > 100 | CCN(C)C(c1ccc(NC(=O)C2(c3ccc4c(c3)OCO4)CC2)nc1)c1ccccc1OC (stereo not shown) [Compound 62] |
| > 100 | O=C(Nc1ccc(Cc2ccccc2)cn1)C1(c2ccc3c(c2)OCO3)CC1 [Compound 63] |
| 25 to 100 | COc1ccccc1Nc1cccc(NC(=O)C2(c3ccc4c(c3)OCO4)CC2)n1 [Compound 64] |
| 25 to 100 | N#Cc1ccc(NC(=O)C2(c3ccc4c(c3)OCO4)CC2)nc1 [Compound 65] |
| > 100 | COc1ccccc1C(OCCCO)c1ccc(NC(=O)C2(c3ccc4c(c3)OCO4)CC2)nc1 (stereo not shown) [Compound 66] |
| > 100 | O=C(Nc1cccc(CC2CCCCC2)n1)C1(c2ccc3c(c2)OCO3)CC1 [Compound 67] |
| > 100 | COc1ccccc1C(=O)c1ccc(NC(=O)C2(c3ccc4c(c3)OC(F)(F)O4)CC2)nc1 [Compound 68] |
| > 100 | O=C(Nc1ccccn1)C1(c2ccc3c(c2)OCO3)CC1 [Compound 69] |
| > 100 | COc1ccccc1C(=O)c1ccc(NC(=O)C2(c3ccc(C)cc3)CC2)nc1 [Compound 70] |
| > 100 | Cc1cccc(NC(=O)C2(c3ccc4c(c3)OCO4)CC2)n1 [Compound 72] |
| > 100 | Cc1ccc(NC(=O)C2(c3ccc4c(c3)OC(F)(F)O4)CC2)nc1NCc1ccccc1 [Compound 73] |
| > 100 | COc1ccccc1N(C)c1cccc(NC(=O)C2(c3ccc4c(c3)OCO4)CC2)n1 [Compound 74] |
| 25 to 100 | CCc1ccnc(NC(=O)C2(c3ccc(OC)cc3)CC2)c1 [Compound 75] |
| > 100 | COc1ccccc1C(=O)c1ccc(NC(=O)C2(c3ccc(Cl)cc3)CC2)nc1 [Compound 76] |
| 25 to 100 | COc1ccccc1C(=O)c1ccc(NC(=O)C2(c3ccccc3)CC2)nc1 [Compound 77] |
| > 100 | O=C(Nc1cccc(Cc2ccccc2Cl)n1)C1(c2ccc3c(c2)OCO3)CC1 [Compound 78] |
